Laboratory results as given in patent US10385036B2, “Sulfonamide-substituted indole modulators of RORC2 and methods of use thereof” (Pfizer Inc., priority 2015, dated 2019).
Where two headings read alike, the source gives them in different places.

Assays:
[1] = tested on: IL-17 production from human Th17 cells; experiment: Assay of IL-17 production from human Th17 cells; format: cell-based; settings: 144 h
Experimental: The activity of compound of the invention can be also be determined by an IL-17 production from human Th17 cells assay. In general, this assay measures blockade of IL-17 production, the signature cytokine of T helper 17 (Th17) cells, by compounds. Purified human CD4+ T cells are stimulated with anti-CD3+anti-CD28 and incubated with a cytokine cocktail that induce their differentiation into Th17 in the absence or presence of various concentrations of compound. After 6 days, IL-17A concentration is measured in the cell culture supernatant with an ELISA kit (MSD).
Preparation of human CD4+ T cells. CD4+ T cells were purified from buffy coats from healthy donors (obtained from Massachusetts General Hospital) by negative selection the following procedure: Mixing 25 mL of blood with 1 mL of Rosette Sep CD4+ T cell enrichment cocktail (StemCell Technologies) followed by application of a layer of 14 mL Ficoll Paque Plus (Amersham GE Healthcare) and subsequent centrifugation at 1200 g for 20 min at room temperature. The Ficoll layer was then harvested and washed with phosphate saline buffer containing 2% (v/v) fetal bovine serum and cells were resuspended with RPMI medium containing 10% (v/v) fetal bovine serum and 10% (v/v) DMSO, frozen and kept in LN2 until used.
[…] Serial dilutions of compounds of the invention are prepared at 10× final concentration in X-Vivo15 medium containing 3% (v/v) DMSO.
On the second day of the assay, a 384-well tissue culture plate was coated with 10 μg/mL anti-hCD3 (eBioscience) at 50 μL/well. After 2 hr at 37° C., the supernatant is discarded and the coated plates are kept in a sterile tissue culture hood.
The cytokine plus anti-CD28 cocktail with CD4+ cells is prepared such that the cocktail is diluted 10-fold and cell density is 0.22×10^6/mL. The mixture is incubated 1 hr at 37° C.
90 μL (20,000 cells) dispensed per well in the anti-hCD3 coated plate prepared as noted above.
10 μL 10× compound is added per well (final DMSO=0.3%) from the compound plate that was previously prepared, followed by 6 days of incubation in a tissue culture vessel in a humidified chamber at 37° C. and 5% CO2.
Measurement is carried out in a Sector Imager 6000 by the same manufacturer. Signal units from the instrument are converted to pg/mL using a calibration curve with known amounts of IL-17A. IC50 values of test compounds (Table 2) are determined by the non-linear regression analysis of dose response curves.

[2] = target: RORC2 ligand binding domain (6-His-RORC2 LBD) (Homo sapiens (Human), UniProt P51449); experiment: Assay of co-activator recruitment by TR-FRET; format: biochemical; settings: 6-His-RORC2 LBD / biotin-coactivator peptide SRC1-2 interaction, 3 hr room temperature
RORC2 ligand binding domain (6-His-RORC2 LBD), sequence (P51449 269-508): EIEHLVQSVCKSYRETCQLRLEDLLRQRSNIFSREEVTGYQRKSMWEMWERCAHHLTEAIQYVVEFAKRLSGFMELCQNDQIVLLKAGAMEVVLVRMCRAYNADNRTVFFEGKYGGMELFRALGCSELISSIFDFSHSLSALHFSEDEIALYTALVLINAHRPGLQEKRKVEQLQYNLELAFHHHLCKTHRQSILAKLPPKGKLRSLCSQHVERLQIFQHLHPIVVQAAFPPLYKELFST
Experimental: The activity of compound of the invention can be determined by a co-activator recruitment by TR-FRET (time-resolved fluorescence resonance energy transfer) assay. […] When receptor and coactivator are bound to each other, upon shining light at 337 nm on the sample, the Europium emits fluorescence that excites APC due to close proximity (FRET) and this signal is measured at 665 nm. Due to the long lasting fluorescence emission of Europium, the non-specific, short-lived fluorescence is time-resolved (TR) from the fluorescence of interest. Inhibitors of the interaction of receptor and coactivator peptide are detected by a decrease in TR-FRET signal.
Specifically, in one embodiment the aforementioned assay was performed as outlined below. The assay was carried out in black polystyrene, 384-well plates in a total assay volume of 50.5 μL. The assay buffer contained 50 mM TRIS-HCL pH 7.5, 1 mM NaCl, 2 mM MgCl2, 0.5 mg/mL bovine serum albumin, and 5 mM dithiothreitol.

[3] = IL-17A in supernatant by ELISA (MSD) after 6 days, human CD4+ T cells differentiated into Th17, read-out: IC50

Row | Structure (SMILES) | IC50 ([1]; Homo sapiens, CD4+ T) [µM] | IC50 [2] [µM] | IC50 [1, 3] [µM]
1 | C[C@H]1CN(C(=O)C2CCCC2)CC[C@H]1c1cn(C)c2ccc(NS(=O)(=O)c3ccc(F)cc3)cc12 (single isomer, unassigned) [Example 3] | 0.121 |  | 
2 | CC(C)C(=O)N1CC[C@@H](c2cn(C)c3ccc(NS(=O)(=O)c4ccc(F)cc4)cc23)[C@@H](C)C1 (single isomer, unassigned) [Example 5] |  | 0.0051 | 0.0903
3 | Cc1nn(C)c(C)c1S(=O)(=O)Nc1ccc2c(c1)c([C@@H]1CCN(C(=O)[C@H](C)C3CCCC3)C[C@@H]1C)cn2C (single isomer, unassigned) [Example 32] |  | 0.0025 | 0.0033
4 | Cc1ccc(F)c(S(=O)(=O)Nc2ccc3c(c2)c([C@@H]2CCN(C(=O)[C@H](C)C4CCCC4)C[C@@H]2C)cn3C)c1 (single isomer, unassigned) [Example 35] | 0.0084 |  | 
5 | Cn1cc(C2CCN(C(=O)C3CC3)CC2)c2cc(NS(=O)(=O)c3ccc(F)cc3)ccc21 [Example 8, N-(3-(1-(cyclopropanecarbonyl)piperidin-4-yl)-1-methyl-1H-indol-5-yl)-4-fluorobenzenesulfonamide] |  | 0.0171 | 0.184
6 | CC(CC(=O)N1CCC(c2cn(C)c3ccc(NS(=O)(=O)c4ccc(F)cc4)cc23)CC1)C(F)(F)F (stereo not shown) [Example 9, 4-fluoro-N-(1-methyl-3-(1-(4,4,4-trifluoro-3-methylbutanoyl)piperidin-4-yl)-1H-indol-5-yl)benzenesulfonamide] |  | 0.0148 | 0.0991
7 | Cn1cc(C2CCN(C(=O)C3CCC3)CC2)c2cc(NS(=O)(=O)c3ccc(F)cc3)ccc21 [Example 11, N-(3-(1-(cyclobutanecarbonyl)piperidin-4-yl)-1-methyl-1H-indol-5-yl)-4-fluorobenzenesulfonamide] |  | 0.0288 | 0.148
8 | Cn1cc(C2CCN(C(=O)C3CCCCC3)CC2)c2cc(NS(=O)(=O)c3ccc(F)cc3)ccc21 [Example 14, N-(3-(1-(cyclohexanecarbonyl)-piperidin-4-yl)-1-methyl-1H-indol-5-yl)-4-fluorobenzenesulfonamide] | 0.221 |  | 
9 | CC(C)C(=O)N1CCC(c2cn(C)c3ccc(NS(=O)(=O)c4ccc(F)c(O)c4)cc23)CC1 [Example 23, 4-fluoro-3-hydroxy-N-(3-(1-isobutyrylpiperidin-4-yl)-1-methyl-1H-indol-5-yl)benzenesulfonamide] | 1.46 |  | 
10 | Cc1ccc(S(=O)(=O)Nc2ccc3c(c2)c(C2CCN(C(=O)[C@H](C)C(C)(C)C)CC2)cn3C)cc1 [Example 25, (R)-4-methyl-N-(1-methyl-3-(1-(2,3,3-trimethylbutanoyl)piperidin-4-yl)-1H-indol-5-yl)benzenesulfonamide] | 0.0106 |  | 
11 | C[C@@H](C(=O)N1CCC(c2cn(C)c3ccc(NS(=O)(=O)c4ccccc4F)cc23)CC1)C(C)(C)C [Example 28, (R)-2-fluoro-N-(1-methyl-3-(1-(2,3,3-trimethylbutanoyl)piperidin-4-yl)-1H-indol-5-yl)benzenesulfonamide] | 0.0114 |  | 
12 | C[C@@H](C(=O)N1CCC(c2cn(C)c3ccc(NS(=O)(=O)c4ccccc4)cc23)CC1)C(C)(C)C [Example 29, (R)-N-(1-methyl-3-(1-(2,3,3-trimethylbutanoyl)piperidin-4-yl)-1H-indol-5-yl)benzenesulfonamide] | 0.0285 |  | 

The remaining lines, values ahead:

Row | IC50 ([1]; Homo sapiens, CD4+ T) [µM] | IC50 [2] [µM] | IC50 [1, 3] [µM] | Structure (SMILES)
13 | 0.137 |  |  | C[C@@H]1CN(C(=O)C2CCCC2)CC[C@@H]1c1cn(C)c2ccc(NS(=O)(=O)c3ccc(F)cc3)cc12 (single isomer, unassigned) [Example 4]
14 |  | 0.007 | 0.019 | CC(C)C(=O)N1CC[C@@H](c2cn(C)c3ccc(NS(=O)(=O)c4ccc(F)cc4)cc23)CC1(C)C (single isomer, unassigned) [Example 18]
15 |  | 0.0037 | 0.191 | Cn1cc([C@@H]2CCN(C(=O)C3CCCC3)C(C)(C)C2)c2cc(NS(=O)(=O)c3ccc(F)cc3)ccc21 (single isomer, unassigned) [Example 19]
16 |  | 0.0011 | 0.0084 | CCOc1ccccc1S(=O)(=O)Nc1ccc2c(c1)c([C@@H]1CCN(C(=O)[C@H](C)C3CCCC3)C[C@@H]1C)cn2C (single isomer, unassigned) [Example 33]
17 | 0.0042 |  |  | C[C@@H](C(=O)N1CC[C@@H](c2cn(C)c3ccc(NS(=O)(=O)c4ccccc4F)cc23)[C@@H](C)C1)C1CCCC1 (single isomer, unassigned) [Example 34]
18 |  | 0.0082 | 0.0135 | C[C@H]1CN(C(=O)[C@H](C)C(C)(C)C)CC[C@H]1c1cn(C)c2ccc(NS(=O)(=O)c3ccc(F)cc3)cc12 [Example 1, 4-fluoro-N-(1-methyl-3-((3R,4R)-3-methyl-1-((R)-2,3,3-trimethylbutanoyl)piperidin-4-yl)-1H-indol-5-yl)benzenesulfonamide]
19 | 0.0048 |  |  | C[C@@H](C(=O)N1CC[C@@H](c2cn(C)c3ccc(NS(=O)(=O)c4ccc(F)cc4)cc23)[C@@H](C)C1)C1CCCC1 [Example 2, N-(3-((3R,4R)-1-((R)-2-cyclopentylpropanoyl)-3-methylpiperidin-4-yl)-1-methyl-1H-indol-5-yl)-4-fluorobenzenesulfonamide]
20 |  | 0.0759 | 0.276 | Cn1cc(C2CCN(C(=O)c3ccns3)CC2)c2cc(NS(=O)(=O)c3ccc(F)cc3)ccc21 [Example 6, 4-fluoro-N-(3-(1-(isothiazole-5-carbonyl)piperidin-4-yl)-1-methyl-1H-indol-5-yl)benzenesulfonamide]
21 |  | 0.0045 | 0.0281 | C[C@@H](C(=O)N1CCC(c2cn(C)c3ccc(NS(=O)(=O)c4ccc(F)cc4)cc23)CC1)C1CCCC1 [Example 7, (R)-N-(3-(1-(2-cyclopentylpropanoyl)piperidin-4-yl)-1-methyl-1H-indol-5-yl)-4-fluorobenzenesulfonamide]
22 | 0.029 |  |  | C[C@@H](C(=O)N1CCC(c2cn(C)c3ccc(NS(=O)(=O)c4ccc(F)cc4)cc23)CC1)C(C)(C)C [Example 10, (R)-4-fiuoro-N-(1-methyl-3-(1-(2,3,3-trimethylbutanoyl)piperidin-4-yl)-1H-indol-5-yl)benzenesulfonamide]
23 | 0.633 |  |  | C[C@H]1C[C@@H](c2cn(C)c3ccc(NS(=O)(=O)c4ccc(F)cc4)cc23)CCN1C(=O)C1CCCC1 [Example 20, N-(3-((2S,4S)-1-(cyclopentanecarbonyl)-2-methylpiperidin-4-yl)-1-methyl-1H-indol-5-yl)-4-fluorobenzenesulfonamide]
24 | 0.0887 |  |  | C[C@H]1C[C@H](c2cn(C)c3ccc(NS(=O)(=O)c4ccc(F)cc4)cc23)CCN1C(=O)C1CCCC1 [Example 21, N-(3-((2S,4R)-1-(cyclopentanecarbonyl)-2-methylpiperidin-4-yl)-1-methyl-1H-indol-5-yl)-4-fluorobenzenesulfonamide]
25 | 0.0695 |  |  | CC(C)C(=O)N1CCC(c2cn(C)c3ccc(NS(=O)(=O)c4ccc(F)c(O[C@@H]5CCOC5)c4)cc23)CC1 [Example 24, (R)-4-fluoro-N-(3-(1-isobutyrylpiperidin-4-yl)-1-methyl-1H-indol-5-yl)-3-((tetrahydrofuran-3-yl)oxy)benzenesulfonamide]
26 | 0.016 |  |  | CCOc1ccccc1S(=O)(=O)Nc1ccc2c(c1)c(C1CCN(C(=O)[C@H](C)C(C)(C)C)CC1)cn2C [Example 27, (R)-2-ethoxy-N-(1-methyl-3-(1-(2,3,3-trimethylbutanoyl)piperidin-4-yl)-1H-indol-5-yl)benzenesulfonamide]
